According to patent US20250171423A1, “PHARMACEUTICAL COMPOUNDS FOR THE TREATMENT OF COMPLEMENT MEDIATED DISORDERS” (Achillion Pharmaceuticals, Inc., priority 2020, published 2025):

Molecular target: T1, Human complement C1s enzyme (Homo sapiens, UniProt P09871)
T1 construct: purified from human serum, Complement Technology, Inc; purchased Complement Technology, Inc; host or cells: human serum
T1 sequence (P09871 438-688 limits assumed): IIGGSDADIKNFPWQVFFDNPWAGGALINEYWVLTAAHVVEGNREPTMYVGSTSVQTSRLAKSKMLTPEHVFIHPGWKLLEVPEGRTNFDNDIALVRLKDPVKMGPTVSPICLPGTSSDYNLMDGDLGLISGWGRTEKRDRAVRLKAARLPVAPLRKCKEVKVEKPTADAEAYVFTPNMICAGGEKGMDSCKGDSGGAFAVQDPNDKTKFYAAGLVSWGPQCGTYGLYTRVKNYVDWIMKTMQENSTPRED
T1 sequence (P09871 16-437 partner limits assumed): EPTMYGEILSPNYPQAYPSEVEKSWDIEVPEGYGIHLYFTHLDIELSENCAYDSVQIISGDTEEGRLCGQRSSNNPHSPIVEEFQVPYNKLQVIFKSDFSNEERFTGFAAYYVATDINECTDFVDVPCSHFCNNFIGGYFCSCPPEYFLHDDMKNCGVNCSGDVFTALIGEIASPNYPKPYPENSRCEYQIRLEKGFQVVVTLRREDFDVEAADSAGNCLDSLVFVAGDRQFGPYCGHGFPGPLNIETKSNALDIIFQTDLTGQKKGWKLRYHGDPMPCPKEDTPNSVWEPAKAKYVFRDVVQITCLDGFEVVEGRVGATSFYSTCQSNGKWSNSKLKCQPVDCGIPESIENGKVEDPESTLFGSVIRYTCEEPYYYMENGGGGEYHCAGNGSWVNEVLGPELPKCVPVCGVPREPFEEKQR
Assay: Human C1s Enzyme Assay
Assay type: biochemical
Conditions: human C1s 1.16 nM, 5 min preincubation, substrate Z-L-Lys-SBzl 100 μM, A405; read-out: C1s Protease Activity
Procedure, shortened: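 C1s purified from human serum (1.16 nM final) was preincubated with compound for 5 min at room temperature in 50 mM Tris, 1 M NaCl, pH 7.5. Z-L-Lys-SBzl and DTNB were then added at 100 μM each, and A405 was followed for 30 min. IC50 came from nonlinear regression of reaction rates.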

| SMILES | IC50 [µM] |
| --- | --- |
| C[C@@]12C[C@@H]1N(CCNC(=O)CCCOc1ccccc1)[C@H](C(=O)NCc1cc(C(=N)N)cs1)C2 [Compound 134, (1S,3S,5S)-N-((4-carbamimidoylthiophen-2-yl)methyl)-5-methyl-2-(2-(4-phenoxybutanamido)ethyl)-2-azabicyclo[3.1.0]hexane-3-carboxamide] | > 1 |
| CO/N=C(\N)c1csc(CNC(=O)[C@@H]2C[C@]3(C)C[C@@H]3N2C(=O)CNC(=O)c2ccc(Oc3ccccc3)cc2)c1 [Compound 6, (1S,3S,5S)-N-((4-((Z)-N′-methoxycarbamimidoyl)thiophen-2-yl)methyl)-5-methyl-2-((4-phenoxybenzoyl)glycyl)-2-azabicyclo[3.1.0]hexane-3-carboxamide] | > 1 |
| CC(=O)NCCOC[C@@]12C[C@@H]1N(C(=O)CNC(=O)CCCOc1ccccc1)[C@H](C(=O)N[C@H](C)c1cc(C(=N)N)cs1)C2 [Compound 142, (1S,3S,5R)-5-((2-acetamidoethoxy)methyl)-N-((R)-1-(4-carbamimidoylthiophen-2-yl)ethyl)-2-((4-phenoxybutanoyl)glycyl)-2-azabicyclo[3.1.0]hexane-3-carboxamide] | 0.1 to 1 |
| CCCCCCOC(=O)/N=C(\N)c1csc(CNC(=O)[C@@H]2C[C@]3(C)C[C@@H]3N2C(=O)CNC(=O)c2ccc(Oc3ccccc3)cc2)c1 [Compound 12, hexyl ((Z)-amino(5-(((1S,3S,5S)-5-methyl-2-((4-phenoxybenzoyl)glycyl)-2-azabicyclo-[3.1.0]hexane-3-carboxamido)methyl)thiophen-3-yl)methylene)carbamate] | > 1 |
| N=C(N)c1csc(CNC(=O)[C@@H]2C[C@]3(CO)C[C@@H]3N2C(=O)CNC(=O)CCCOc2ccccc2)c1 [Compound 84, (1S,3S,5R)-N-((4-carbamimidoylthiophen-2-yl)methyl)-5-(hydroxymethyl)-2-((4-phenoxybutanoyl)glycyl)-2-azabicyclo[3.1.0]hexane-3-carboxamide] | 0.1 to 1 |
| N=C(N)c1csc(NC(=O)C[C@@H]2CCCN2C(=O)CNC(=O)c2ccc(Oc3ccccc3)cc2)c1 [Compound 40, N-{2-[(2S)-2-{[(4-carbamimidoylthiophen-2-yl)carbamoyl]methyl}pyrrolidin-1-yl]-2-oxoethyl}-4-phenoxybenzamide] | > 1 |
| CO[C@@H]1C[C@@H](C(=O)NCc2cc(C(=N)N)cs2)N(C(=O)CNC(=O)CCCOc2ccccc2)C1 [Compound 27, (2S,4R)-N-((4-carbamimidoylthiophen-2-yl)methyl)-4-methoxy-1-((4-phenoxy-butanoyl)glycyl)pyrrolidine-2-carboxamide] | < 0.1 |
| C[C@@H](NC(=O)[C@@H]1C[C@](F)(CF)CN1C(=O)CNC(=O)CCCOc1ccc(F)cc1)c1cc(C(=N)N)cs1 [Compound 99, (2S,4R)-N-[(1R)-1-(4-carbamimidoylthiophen-2-yl)ethyl]-4-fluoro-4-(fluoromethyl)-1-{2-[4-(4-fluorophenoxy)butanamido]acetyl}pyrrolidine-2-carboxamide] | < 0.1 |
| C[C@@]12C[C@@H]1N(C(=O)CNC(=O)c1ccc(Oc3ccccc3)cc1)[C@H](C(=O)NCc1cc(S(C)(=N)=O)cs1)C2 (stereo partly drawn) [Compound 23, (1S,3S,5S)-5-methyl-N-((4-(S-methylsulfonimidoyl)thiophen-2-yl)methyl)-2-((4-phenoxybenzoyl)glycyl)-2-azabicyclo[3.1.0]hexane-3-carboxamide] | > 1 |
| N=C(N)c1csc(CNC(=O)[C@@H]2CC(=C(F)F)CN2C(=O)CNC(=O)c2ccc(Oc3ccccc3)cc2)c1 [Compound 1, (S)-N-((4-carbamimidoylthiophen-2-yl)methyl)-4-(difluoromethylene)-1-((4-phenoxybenzoyl)glycyl)pyrrolidine-2-carboxamide] | < 0.1 |
| N=C(N)c1csc(CNC(=O)C23CCC(CC2)N3C(=O)CNC(=O)c2ccc(Oc3ccccc3)cc2)c1 [Compound 16, N-((4-carbamimidoylthiophen-2-yl)methyl)-7-((4-phenoxybenzoyl)glycyl)-7-azabicyclo[2.2.1]heptane-1-carboxamide] | 0.1 to 1 |
| CC(=O)NCCOC[C@@]12C[C@@H]1N(C(=O)CNC(=O)c1ccc(Oc3ccccc3)cc1)[C@H](C(=O)NCc1cc(C(=N)N)cs1)C2 [Compound 74, (1S,3S,5R)-5-((2-acetamidoethoxy)methyl)-N-((4-carbamimidoylthiophen-2-yl)methyl)-2-((4-phenoxybenzoyl)glycyl)-2-azabicyclo[3.1.0]hexane-3-carboxamide] | < 0.1 |
| N=C(N)c1csc(CNC(=O)[C@@H]2C[C@]3(CN2C(=O)CNC(=O)CCCOc2ccccc2)CC3(F)F)c1 [Compound 57, (3R,6S)-N-((4-carbamimidoylthiophen-2-yl)methyl)-1,1-difluoro-5-((4-phenoxy-butanoyl)glycyl)-5-azaspiro[2.4]heptane-6-carboxamide] | < 0.1 |
| N=C(N)c1csc(CNC(=O)[C@@H]2C[C@]3(CN2C(=O)CNC(=O)c2ccc(Oc4ccccc4)cc2)CC3(F)F)c1 [Compound 22, (3R,6S)-N-((4-carbamimidoylthiophen-2-yl)methyl)-1,1-difluoro-5-((4-phenoxy-benzoyl)glycyl)-5-azaspiro[2.4]heptane-6-carboxamide] | < 0.1 |
| C[C@@]12C[C@@H]1N(C(=O)CNC(=O)c1ccc(Oc3ccccc3)cc1)[C@H](C(=O)NCc1cc(/C(N)=N/S(C)(=O)=O)cs1)C2 [Compound 13, (1S,3S,5S)-5-methyl-N-((4-((Z)-N′-(methylsulfonyl)carbamimidoyl)thiophen-2-yl)-methyl)-2-((4-phenoxybenzoyl)glycyl)-2-azabicyclo[3.1.0]hexane-3-carboxamide] | > 1 |

Further lines, results first:

| IC50 [µM] | SMILES |
| --- | --- |
| > 1 | CC(C)[C@@H](NC(=O)[C@@H]1CC2(CN1C(=O)CNC(=O)CCCOc1ccccc1)OCCO2)c1cc(C(=N)N)cs1 [Compound 167, (S)-N-((R)-1-(4-carbamimidoylthiophen-2-yl)-2-methylpropyl)-7-((4-phenoxybutanoyl)glycyl)-1,4-dioxa-7-azaspiro[4.4]nonane-8-carboxamide] |
| < 0.1 | N=C(N)c1csc(CNC(=O)[C@@H]2CC3(CN2C(=O)CNC(=O)CCCOc2ccnc(F)c2)OCCO3)c1 [Compound 206, (S)-N-((4-carbamimidoylthiophen-2-yl)methyl)-7-((4-((2-fluoropyridin-4-yl)oxy)butanoyl)glycyl)-1,4-dioxa-7-azaspiro[4.4]nonane-8-carboxamide] |
| < 0.1 | C[C@H](Oc1ccc(C(=O)NCC(=O)N2[C@H]3C[C@@]3(C)C[C@H]2C(=O)NCc2cc(C(=N)N)cs2)cc1)c1ccccc1 [Compound 212, (1S,3S,5S)-N-((4-carbamimidoylthiophen-2-yl)methyl)-5-methyl-2-((4-((S)-1-phenylethoxy)benzoyl)glycyl)-2-azabicyclo[3.1.0]hexane-3-carboxamide] |
| > 1 | C[C@@]12C[C@@H]1N(C(=O)CNC(=O)CCCOc1ccccc1)[C@H](C(=O)NCc1cc(C(=N)N)c(C(F)(F)F)s1)C2 [Compound 251, (1S,3S,5S)-N-((4-carbamimidoyl-5-(trifluoromethyl)thiophen-2-yl)methyl)-5-methyl-2-((4-phenoxybutanoyl)glycyl)-2-azabicyclo[3.1.0]hexane-3-carboxamide] |
| < 0.1 | C[C@@]12C[C@@H]1N(C(=O)CNC(=O)c1ccc(C3(c4ccccc4)COC3)cc1)[C@H](C(=O)NCc1cc(C(=N)N)cs1)C2 [Compound 168, (1S,3S,5S)-N-((4-carbamimidoylthiophen-2-yl)methyl)-5-methyl-2-((4-(3-phenyloxetan-3-yl)benzoyl)glycyl)-2-azabicyclo[3.1.0]hexane-3-carboxamide] |
| > 1 | C/N=C(/NC)c1csc(CNC(=O)[C@@H]2C[C@]3(C)C[C@@H]3N2C(=O)CNC(=O)c2ccc(Oc3ccccc3)cc2)c1 [Compound 222, (1S,3S,5S)-N-((4-((E)-N,N′-dimethylcarbamimidoyl)thiophen-2-yl)methyl)-5-methyl-2-((4-phenoxybenzoyl)glycyl)-2-azabicyclo[3.1.0]hexane-3-carboxamide] |
| < 0.1 | N=C(N)c1csc(CNC(=O)[C@@H]2CC(c3nccs3)CN2C(=O)CNC(=O)c2ccc(Oc3ccccc3)cc2)c1 (stereo in doubt) [Compound 209, (2S,4R)-N-((4-carbamimidoylthiophen-2-yl)methyl)-1-((4-phenoxybenzoyl)glycyl)-4-(thiazol-2-yl)pyrrolidine-2-carboxamide] |
| > 1 | COC[C@@H](NC(=O)[C@@H]1C[C@@H](OC(F)F)CN1C(=O)CNC(=O)c1ccc(Oc2ccccc2)cc1)c1cc(C(=N)N)cs1 [Compound 213, (2S,4R)-N-((R)-1-(4-carbamimidoylthiophen-2-yl)-2-methoxyethyl)-4-(difluoromethoxy)-1-((4-phenoxybenzoyl)glycyl)pyrrolidine-2-carboxamide] |
